# From ChEMBL document CHEMBL2074199, “The MRP4/ABCC4 gene encodes a novel apical organic anion transporter in human kidney proximal tubules: putative efflux pump for urinary cAMP and cGMP” (J Am Soc Nephrol, 2002)
# T1: ATP-binding cassette sub-family C member 4 (Homo sapiens, UniProt O15439)
# T1 sequence (O15439 whole entry): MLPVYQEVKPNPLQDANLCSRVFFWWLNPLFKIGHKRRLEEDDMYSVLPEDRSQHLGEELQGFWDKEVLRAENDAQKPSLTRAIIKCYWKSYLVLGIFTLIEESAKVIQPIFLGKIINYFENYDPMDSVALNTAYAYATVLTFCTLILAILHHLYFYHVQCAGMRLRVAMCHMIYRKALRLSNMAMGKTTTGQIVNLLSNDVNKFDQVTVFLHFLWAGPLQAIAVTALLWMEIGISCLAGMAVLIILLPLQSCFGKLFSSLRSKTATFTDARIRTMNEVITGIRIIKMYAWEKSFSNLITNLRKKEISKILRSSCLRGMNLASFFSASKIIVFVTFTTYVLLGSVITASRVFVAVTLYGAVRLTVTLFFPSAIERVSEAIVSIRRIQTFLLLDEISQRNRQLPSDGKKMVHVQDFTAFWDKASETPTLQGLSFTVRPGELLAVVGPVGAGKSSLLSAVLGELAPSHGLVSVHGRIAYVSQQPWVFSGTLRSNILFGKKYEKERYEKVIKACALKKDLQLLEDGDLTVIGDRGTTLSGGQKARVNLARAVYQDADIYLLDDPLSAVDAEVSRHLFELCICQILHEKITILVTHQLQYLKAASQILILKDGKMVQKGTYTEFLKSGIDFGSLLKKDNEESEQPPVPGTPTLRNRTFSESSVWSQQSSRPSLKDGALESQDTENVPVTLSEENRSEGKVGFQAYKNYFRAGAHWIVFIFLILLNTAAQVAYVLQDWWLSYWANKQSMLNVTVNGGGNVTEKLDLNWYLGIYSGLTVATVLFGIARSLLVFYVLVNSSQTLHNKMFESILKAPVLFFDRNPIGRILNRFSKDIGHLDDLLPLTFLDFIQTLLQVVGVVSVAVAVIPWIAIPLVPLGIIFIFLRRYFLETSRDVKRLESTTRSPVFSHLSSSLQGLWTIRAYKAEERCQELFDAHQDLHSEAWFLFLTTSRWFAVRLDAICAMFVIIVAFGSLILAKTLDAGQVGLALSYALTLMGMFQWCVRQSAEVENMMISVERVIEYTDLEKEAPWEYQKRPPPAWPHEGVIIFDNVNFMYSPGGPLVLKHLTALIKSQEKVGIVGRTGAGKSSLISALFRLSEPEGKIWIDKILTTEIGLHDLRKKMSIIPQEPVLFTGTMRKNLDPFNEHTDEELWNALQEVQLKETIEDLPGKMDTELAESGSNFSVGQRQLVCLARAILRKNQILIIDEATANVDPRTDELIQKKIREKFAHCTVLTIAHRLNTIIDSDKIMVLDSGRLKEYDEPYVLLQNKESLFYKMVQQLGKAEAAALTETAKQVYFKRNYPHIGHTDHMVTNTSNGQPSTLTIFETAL
# T2: MRP4 (ABCC4) (Homo sapiens, UniProt O15439)
# T2 sequence (O15439 whole entry): T1 sequence (O15439 whole entry)
# B1: ATP-binding cassette sub-family C member 4 (Homo sapiens) (protein)
# chain: T1 sequence (O15439 whole entry)
# Legend:
# Type in all cases: functional, cell membranes, Membrane vesicle
# [1] = biological target: T1, ATP-binding cassette sub-family C member 4; experiment: TP_TRANSPORTER: inhibition of cGMP uptake ([…]: 1 uM, Dipyridamole: 1 uM) in membrane vesicles from MRP4-expressing Sf9 cells; set-up: scale not given: the % may be the effect or the level left; settings: sf9, 1 µM
# MRP4 (ABCC4) [2] = biological target: T2, MRP4 (ABCC4); experiment: TP_TRANSPORTER: inhibition of Methotrexate uptake (MTX: 0.1 uM, alpha-naphthyl beta-D-glucuronide: 1000 uM) in membrane vesicles from MRP4-expressing Sf9 cells; set-up: scale not given: the % may be the effect or the level left; settings: probe methotrexate 0.1 uM, read-out: Activity
# MRP4 (ABCC4) [3] = biological target: T2, MRP4 (ABCC4); experiment: TP_TRANSPORTER: inhibition of MTX uptake (MTX: 0.1 uM, p-Nitropenyl-beta-D-glucuronide: 1000 uM) in membrane vesicles from MRP4-expressing Sf9 cells; set-up: scale not given: the % may be the effect or the level left; settings: probe methotrexate 0.1 uM, read-out: Activity
# MRP4 (ABCC4) [4] = biological target: T2, MRP4 (ABCC4); experiment: TP_TRANSPORTER: inhibition of Methotrexate uptake (MTX: 0.1 uM, DNP-SG: 100 uM) in membrane vesicles from MRP4-expressing Sf9 cells; set-up: scale not given: the % may be the effect or the level left; settings: probe methotrexate 0.1 uM, read-out: Activity
# [5] = biological target: T1, ATP-binding cassette sub-family C member 4; experiment: TP_TRANSPORTER: inhibition of cGMP uptake ([…]: 1 uM, Probenecid: 1000 uM) in membrane vesicles from MRP4-expressing Sf9 cells; set-up: scale not given: the % may be the effect or the level left; settings: sf9, 1000 µM
# MRP4 (ABCC4) [6] = biological target: T2, MRP4 (ABCC4); experiment: TP_TRANSPORTER: inhibition of MTX uptake (MTX: 0.1 uM, E217betaG: 100 uM) in membrane vesicles from MRP4-expressing Sf9 cells; set-up: scale not given: the % may be the effect or the level left; settings: probe methotrexate 0.1 uM, read-out: Activity
# MRP4 (ABCC4) [7] = biological target: T2, MRP4 (ABCC4); experiment: TP_TRANSPORTER: inhibition of MTX uptake (MTX: 0.1 uM, NAc-DNP-Cys: 100 uM) in membrane vesicles from MRP4-expressing Sf9 cells; set-up: scale not given: the % may be the effect or the level left; settings: probe methotrexate 0.1 uM, read-out: Activity
# [8] = substrate: CN(Cc1cnc2nc(N)nc(N)c2n1)c1ccc(C(=O)N[C@@H](CCC(=O)O)C(=O)O)cc1; experiment: TP_TRANSPORTER: uptake in membrane vesicles from MRP4-expressing Sf9 cells
molecule,measurement,setting,value
OCCN(CCO)c1nc(N2CCCCC2)c2nc(N(CCO)CCO)nc(N3CCCCC3)c2n1 [DIPYRIDAMOLE],Activity,[1],9%
O=C(O)[C@H]1O[C@@H](Oc2cccc3ccccc23)[C@H](O)[C@@H](O)[C@@H]1O,activity at 1000 µM,MRP4 (ABCC4) [2],18%
O=C(O)[C@H]1O[C@@H](Oc2ccc([N+](=O)[O-])cc2)[C@H](O)[C@@H](O)[C@@H]1O,activity at 1000 µM,MRP4 (ABCC4) [3],25%
N[C@@H](CCC(=O)N[C@H](CSc1ccc([N+](=O)[O-])cc1[N+](=O)[O-])C(=O)NCC(=O)O)C(=O)O,activity at 100 µM,MRP4 (ABCC4) [4],3%
CCCN(CCC)S(=O)(=O)c1ccc(C(=O)O)cc1 [PROBENECID],Activity,[5],10%
C[C@]12CC[C@@H]3c4ccc(O)cc4CC[C@H]3[C@@H]1CC[C@@H]2O[C@@H]1O[C@H](C(=O)O)[C@@H](O)[C@H](O)[C@H]1O [ESTRADIOL 17B GLUCURONIDE],activity at 100 µM,MRP4 (ABCC4) [6],75%
CC(=O)N[C@@H](CSc1ccc([N+](=O)[O-])cc1[N+](=O)[O-])C(=O)O,activity at 100 µM,MRP4 (ABCC4) [7],29%
B1,Km,[8],1300 µM
